Measured values reported in patent US9718820B2, “Substituted aza-bicyclic imidazole derivatives useful TRPM8 receptor modulators” (Janssen Pharmaceutica NV, priority 2010, dated 2017).

Tests used:
[1] = biological target: TRPM8 channel (Rattus norvegicus (Rat), UniProt Q8R455); experiment: Inhibition of icilin-induced "wet-dog" shakes in rats; format: in vivo; conditions: 10 mg/kg p.o. in 10% HP-β-CD, icilin 3.0 mg/kg i.p.
Procedure: Similar shaking or jumping behavior was also evident in mice, rabbits, cats, dogs and monkeys. In humans, icilin produced a sensation of coolness on contact with mucous membranes, cold prickling when 0.1 mg was dropped on the tongue and coldness in the mouth, pharynx and chest lasting 30-60 min when 5-10 mg was ingested orally (WEI, E. T., et al., “AG-3-5: a chemical producing sensations of cold”, J Pharm Pharmacol., 1983, pp 110-112, Vol. 35). The inhibition or reversal of icilin-induced shaking behaviors in rodents provides evidence for the engagement and functional blockade of the TRPM8 channel and thereby for the utility of TRPM8 antagonists in treating or preventing a disease or condition in a mammal in which the disease or condition is affected by the modulation of TRPM8 receptors.
Male Sprague Dawley rats (220-450 g, Charles River Labs, n=6-9/treatment) were used to evaluate the ability of test compounds to block icilin-induced “wet-dog” shakes (WDS). […] Icilin was then administered in 10% solutol/H2O, at 3.0 mg/kg, i.p., and spontaneous “wet-dog” shakes were counted 10 min following the icilin injection over a 10-min period.

[2] = biological target: canine TRPM8 (Canis lupus familiaris, UniProt Q1A7N1); experiment: In vitro canine TRPM8 functional assay (icilin-induced intracellular Ca2+ increase, FLIPR/FDSS); format: cell-based; conditions: 0.2 μM compound; icilin response in HEK293 cells stably expressing canine TRPM8
canine TRPM8, sequence (Q1A7N1 1-1104): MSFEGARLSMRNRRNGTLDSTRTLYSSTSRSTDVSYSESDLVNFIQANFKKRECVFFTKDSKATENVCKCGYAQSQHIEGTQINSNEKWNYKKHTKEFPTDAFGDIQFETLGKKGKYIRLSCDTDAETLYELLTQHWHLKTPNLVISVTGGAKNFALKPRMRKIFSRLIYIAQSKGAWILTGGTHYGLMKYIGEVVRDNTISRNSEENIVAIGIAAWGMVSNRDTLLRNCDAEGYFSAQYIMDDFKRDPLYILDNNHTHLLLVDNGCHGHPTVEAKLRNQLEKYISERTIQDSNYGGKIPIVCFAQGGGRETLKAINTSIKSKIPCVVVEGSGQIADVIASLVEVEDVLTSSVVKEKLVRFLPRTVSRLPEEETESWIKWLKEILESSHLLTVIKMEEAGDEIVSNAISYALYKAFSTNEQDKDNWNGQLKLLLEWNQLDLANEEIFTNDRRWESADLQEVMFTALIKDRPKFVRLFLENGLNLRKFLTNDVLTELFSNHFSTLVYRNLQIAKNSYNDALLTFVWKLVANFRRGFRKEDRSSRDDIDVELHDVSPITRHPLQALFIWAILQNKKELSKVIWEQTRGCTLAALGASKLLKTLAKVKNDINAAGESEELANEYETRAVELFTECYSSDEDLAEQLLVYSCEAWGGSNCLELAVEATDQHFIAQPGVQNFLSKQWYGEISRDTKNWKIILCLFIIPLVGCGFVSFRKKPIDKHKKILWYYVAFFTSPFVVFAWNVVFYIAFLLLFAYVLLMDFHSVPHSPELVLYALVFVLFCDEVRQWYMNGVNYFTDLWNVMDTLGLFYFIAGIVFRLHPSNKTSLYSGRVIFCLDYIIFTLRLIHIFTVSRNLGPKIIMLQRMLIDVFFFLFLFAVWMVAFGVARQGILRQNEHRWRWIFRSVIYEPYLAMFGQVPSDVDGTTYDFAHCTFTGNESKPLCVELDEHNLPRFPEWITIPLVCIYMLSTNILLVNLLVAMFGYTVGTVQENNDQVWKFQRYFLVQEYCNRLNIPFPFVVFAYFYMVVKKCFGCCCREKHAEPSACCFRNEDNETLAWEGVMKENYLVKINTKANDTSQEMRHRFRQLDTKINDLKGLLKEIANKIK
Procedure: The functional activity of representative compounds of the formula (I) of the present invention was quantified by measuring changes in intracellular calcium concentration using a Ca^2+-sensitive fluorescent dye. The changes in fluorescent signal were monitored by a fluorescence plate reader, either a FLIPR™ (Molecular Devices) or FDSS (Hamamatsu).
HEK293 cells stably expressing canine TRPM8 were routinely grown as monolayers in Dulbecco's minimum essential medium supplemented with 10% FBS, 2 mM L-glutamine, 100 units/mL penicillin, 100 ug/mL streptomycin and 400 μg/mL G418. Cells were maintained in 5% CO2 at 37° C. […] Cells were treated with compounds of the formula (I) at varying concentrations and intracellular Ca^2+ was measured for 5 min prior to the addition of icilin to each well to achieve a final concentration that produces an approximately 80% maximal response.
Maximal fluorescence intensity (FI) achieved upon addition of icilin was exported from the FLIPR™ or FDSS software and further analyzed using GraphPad Prism 3.02 (Graph Pad Software Inc., CA, U.S.A.). […] Finally, the EC50 and IC50 values were calculated with the best-fit curve determined by GraphPad Prism

TRPM8 channel, sequence (Q8R455 whole entry): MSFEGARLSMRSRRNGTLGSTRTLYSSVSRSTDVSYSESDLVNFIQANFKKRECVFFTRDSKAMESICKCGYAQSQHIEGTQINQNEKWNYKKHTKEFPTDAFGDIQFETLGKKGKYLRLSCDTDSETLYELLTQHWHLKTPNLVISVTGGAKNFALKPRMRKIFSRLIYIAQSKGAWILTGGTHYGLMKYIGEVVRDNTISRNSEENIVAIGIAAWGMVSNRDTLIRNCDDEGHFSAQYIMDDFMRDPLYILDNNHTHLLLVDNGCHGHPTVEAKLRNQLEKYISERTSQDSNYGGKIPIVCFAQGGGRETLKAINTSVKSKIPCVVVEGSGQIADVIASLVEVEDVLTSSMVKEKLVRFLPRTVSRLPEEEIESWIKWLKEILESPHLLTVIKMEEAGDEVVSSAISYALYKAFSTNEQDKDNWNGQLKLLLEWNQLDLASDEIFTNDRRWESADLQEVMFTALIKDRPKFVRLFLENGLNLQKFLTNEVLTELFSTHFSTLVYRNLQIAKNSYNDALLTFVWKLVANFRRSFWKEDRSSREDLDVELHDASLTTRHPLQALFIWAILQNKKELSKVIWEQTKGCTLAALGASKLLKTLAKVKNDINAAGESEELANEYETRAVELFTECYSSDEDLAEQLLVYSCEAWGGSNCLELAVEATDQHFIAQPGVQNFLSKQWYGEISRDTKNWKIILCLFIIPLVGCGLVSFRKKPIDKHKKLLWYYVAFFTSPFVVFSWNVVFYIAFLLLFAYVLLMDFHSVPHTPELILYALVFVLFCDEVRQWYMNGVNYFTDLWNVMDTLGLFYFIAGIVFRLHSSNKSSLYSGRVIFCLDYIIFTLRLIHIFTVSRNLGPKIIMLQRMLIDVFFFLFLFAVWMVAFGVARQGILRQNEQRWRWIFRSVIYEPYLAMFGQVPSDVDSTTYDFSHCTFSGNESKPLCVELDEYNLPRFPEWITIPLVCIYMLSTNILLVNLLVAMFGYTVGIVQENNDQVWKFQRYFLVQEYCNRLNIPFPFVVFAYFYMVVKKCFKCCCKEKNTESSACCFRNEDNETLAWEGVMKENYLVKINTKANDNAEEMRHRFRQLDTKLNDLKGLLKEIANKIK

Compound	Icilin % Inhibition @ 1.5 h, 10 mg/kg [1] [%]	% Inh @ 0.2 μM [2] [%]
COc1nc(-c2ccccc2Cl)cc2nc(-c3c(C#N)c(C(C)(C)C)nn3C)[nH]c12.CS(=O)(=O)O [Compound 17, 3-tert-Butyl-5-[6-(2-chloro-phenyl)-4-methoxy-3H-imidazo[4,5-c]pyridine-2-yl]-1-methyl-1H-pyrazole-4-carbonitrile methanesulfonic acid salt]	38	–
Cn1nc(C(C)(C)C)c(Cl)c1-c1nc2nc(-c3ccccc3Cl)cnc2[nH]1 [Compound 110]	–	99
Cn1nc(C(C)(C)C)c(Cl)c1-c1nc2nc(-c3ccccc3C(F)(F)F)cc(C(F)(F)F)c2[nH]1 [Compound 1]	–	99
